Measured values reported in PubChem BioAssay (NCI).
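Cultured in 96-well plates, cells were exposed to test compound for 48 hours across five concentrations. Abbreviation: GI50, concentration required for 50% inhibition of growth. TGI marks complete inhibition of growth.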

Tests used:
Test in all cases: NCI anticancer screen, dose series, 48 h
UACC-257 melanoma = tested on: UACC-257 melanoma
MCF7 breast = tested on: MCF7 breast
CAKI-1 renal = tested on: CAKI-1 renal
NCI-H23 lung = tested on: NCI-H23 lung
NCI/ADR-RES ovarian = tested on: NCI/ADR-RES ovarian
ACHN renal = tested on: ACHN renal
KM12 colon = tested on: KM12 colon
OVCAR-4 ovarian = tested on: OVCAR-4 ovarian
HCT-15 colon = tested on: HCT-15 colon
HOP-62 NSCLC = tested on: HOP-62 NSCLC

| SMILES | GI50 (UACC-257 melanoma) | TGI (UACC-257 melanoma) | GI50 (MCF7 breast) | TGI (MCF7 breast) | GI50 (CAKI-1 renal) | TGI (CAKI-1 renal) | GI50 (NCI-H23 lung) | TGI (NCI-H23 lung) | GI50 (NCI/ADR-RES ovarian) | TGI (NCI/ADR-RES ovarian) | GI50 (ACHN renal) | TGI (ACHN renal) | GI50 (KM12 colon) | TGI (KM12 colon) | GI50 (OVCAR-4 ovarian) | TGI (OVCAR-4 ovarian) | GI50 (HCT-15 colon) | TGI (HCT-15 colon) | TGI (HOP-62 NSCLC) | GI50 (HOP-62 NSCLC) |
| --- | --- | --- | --- | --- | --- | --- | --- | --- | --- | --- | --- | --- | --- | --- | --- | --- | --- | --- | --- | --- |
| O=C(CN1CCN(c2ccccn2)CC1)Nc1ccc(Cl)cc1C(=O)c1ccccc1Cl | 54.9 µM | > 100 µM | 9.26 µM | > 100 µM | > 100 µM | > 100 µM | 86.2 µM | > 100 µM | 86.8 µM | > 100 µM | 56.1 µM | > 100 µM | 7.73 µM | > 100 µM | 13.9 µM | > 100 µM | 7.85 µM | > 100 µM |  |  |
| Nc1ncnc2c1ncn2C1OC(C(=O)OCCO)C(O)C1O (stereo unspecified) |  | > 100 µM |  | > 100 µM |  | > 100 µM |  | > 100 µM |  | > 100 µM |  | > 100 µM |  | > 100 µM |  | > 100 µM |  | > 100 µM | > 100 µM |  |
| NS(=O)(=O)c1ccc(N=Nc2c(=O)[nH]c3ccc4[nH]cccc4c23)cc1 | 0.828 µM | 6.98 µM | 0.129 µM | > 25 µM | 4.28 µM | > 25 µM | 0.671 µM | 3.77 µM | > 15.8 µM | > 25 µM | 0.694 µM | > 25 µM | 0.792 µM | 4.32 µM | 0.409 µM | > 6.68 µM | 2.12 µM | > 25 µM | > 25 µM | 0.653 µM |
| C[C@H](c1ccc(Cl)cc1[N+](=O)[O-])N1C(=O)c2cc(I)ccc2NC(=O)[C@H]1c1ccc(Cl)cc1 | 33.9 µM | > 100 µM | 6.53 µM | > 100 µM | 4.2 µM | > 100 µM | > 100 µM | > 100 µM | > 100 µM | > 100 µM | > 100 µM | > 100 µM | > 100 µM | > 100 µM | 7.08 µM | > 100 µM | > 100 µM | > 100 µM | > 100 µM | > 100 µM |
| O=C(Nc1ccc(N2CCNCC2)cn1)c1[nH]ncc1Nc1ncnc2sc3c(c12)CCC3 | 16.6 µM | 41.2 µM | 1.68 µM | 4.2 µM | 1.4 µM | 3.26 µM | 2.21 µM | 6.32 µM | 4.75 µM | > 100 µM |  |  | 2.38 µM | 6.12 µM |  |  |  |  | 4.81 µM | 1.83 µM |
| O=C(O)CSc1nnc2c3ccccc3c3ccccc3c2n1 |  | > 100 µM |  | > 100 µM |  | > 100 µM |  | > 100 µM |  | > 100 µM |  | > 100 µM |  | > 100 µM |  | > 100 µM |  | > 100 µM | > 100 µM |  |
| COc1cc[nH]c1/C=C1\C(=O)Nc2ccc([N+](=O)[O-])c(N3CC[C@@H](O)C3)c21 | 0.474 µM | 1.64 µM | 0.121 µM | 2.85 µM | 0.369 µM | 1.63 µM | 0.484 µM | 1.89 µM | 0.53 µM | 5.83 µM | 0.0804 µM | 2 µM | 0.101 µM | 2.22 µM | 0.488 µM | 2.14 µM | 0.123 µM | 2.92 µM | 1.88 µM | 0.181 µM |
| COC(=O)[C@]1(C)CC[C@]2(C)CC[C@]3(C)C(=CC(=O)[C@@H]4[C@@]5(C)CCC(=O)NC(C)(C)[C@@H]5CC[C@]43C)[C@@H]2C1 | 24.4 µM | 94.3 µM | 13.3 µM | 43.5 µM | 35.9 µM | > 100 µM | 31 µM | > 100 µM | 20.2 µM | 53.6 µM | 24 µM | 89.4 µM | 16.4 µM | 38 µM | 27.6 µM | > 100 µM | 16.1 µM | > 100 µM | > 100 µM | 29 µM |
| NC(N)=N/N=C/c1ccc(Br)cc1 | 12.8 µM | 29.1 µM | 2.28 µM | 11.7 µM | 3.02 µM | 15.2 µM | 4.81 µM | 19.6 µM | 3.15 µM | 10.6 µM | 7.2 µM | 20.1 µM | 3.42 µM | 15.5 µM | 10.3 µM | 31.6 µM | 3.89 µM | 19 µM | 24.2 µM | 9.8 µM |
| COc1ccc(-c2cc3c(N)ncnc3o2)cc1 | > 25 µM | > 25 µM | > 25 µM | > 25 µM | 17.6 µM | > 25 µM | > 25 µM | > 25 µM | > 25 µM | > 25 µM | > 25 µM | > 25 µM | > 25 µM | > 25 µM | > 25 µM | > 25 µM | > 25 µM | > 25 µM | > 25 µM | > 25 µM |
| O=C1CC2OCC=C3CN4CCC56c7ccccc7N1C5C2C3CC46 (stereo unspecified) (tested in a mixture with another compound) | > 50 µg/mL | > 50 µg/mL | > 50 µg/mL | > 50 µg/mL | > 50 µg/mL | > 50 µg/mL | > 50 µg/mL | > 50 µg/mL | > 50 µg/mL | > 50 µg/mL | > 50 µg/mL | > 50 µg/mL | > 50 µg/mL | > 50 µg/mL | > 50 µg/mL | > 50 µg/mL | > 50 µg/mL | > 50 µg/mL | > 50 µg/mL | > 50 µg/mL |
| CC(C)CC1NC(=O)C(C(C)C)NC(=O)CC(C)COC(=O)C(CC(C)C)N(C)C(=O)C(C(C)C)NC(=O)C(C(C)C)OC1=O (stereo unspecified) |  | > 50 µM |  | > 50 µM |  | > 50 µM |  | > 50 µM |  | > 50 µM |  | > 50 µM |  | > 50 µM |  |  |  | > 50 µM | > 50 µM |  |
| N#CC1C(=O)NC(=O)C(C#N)C1c1ccc(Cl)c(Cl)c1 (stereo unspecified) |  | 86.7 µM |  | > 100 µM |  | 71.6 µM |  | 49.2 µM |  | 83.1 µM |  | 50.9 µM |  | > 100 µM |  | > 100 µM |  | 46.1 µM | 43.4 µM |  |
| COn1cc(C(=O)N=C(SC)SC)c2ccccc21 | 18.2 µM | 59.2 µM | > 100 µM | > 100 µM | 22.7 µM | 63.8 µM | 27.2 µM | 60.3 µM | 18.2 µM | 42.5 µM | 22 µM | 47.7 µM | 20.3 µM | 52.7 µM | > 100 µM | > 100 µM | 22.4 µM | 62.5 µM | 51.4 µM | 17.6 µM |
